Data: patent US5278285A, “Variant of Kunitz-type inhibitor derived from the α3-chain of human type VI collagen produced by recombinant DNA technology” (Bayer Aktiengesellschaft, priority 1990, dated 1994)

Key:
[1] = test system: human trypsin; assay: Trypsin inhibition assay; format: biochemical; settings: substrate benzoyl-L-arginine p-nitroanilide; product expressed in yeast
Procedure: The trypsin activity was determined using the method of geiger & Fritz, Methods of Enzymatic Analysis, Vol. V, 3rd ed., Bergmeyer (ed.), Verlag Chemie, Weinheim (1984), p. 121 with benzoyl-L-arginine p-nitroanilide as substrate. The liberated p-nitroaniline was measured in a spectrophotometer at 405 nm. Enzyme and inhibitor were preincubated for 15 min before addition of the substrate.

[2] = application during open heart surgery, clinical studies; cited from earlier work

Substance | trypsin inhibition (biological activity) [1] | blood loss [2]
α3(VI) inhibitor: Kunitz type proteinase inhibitor, aminoacid pos. 2873 to 2931 of the C5 domain of human type VI collagen α3 chain, expressed in yeast (pKol 100) | inhibits human trypsin | 
aprotinin |  | reduces blood loss significantly
